Measured values reported in US5747447A, “Stable polypeptide composition” (COR Therapeutics, priority 1995, dated 1998).
Like-named read-outs stand apart in the source and are kept apart here. *1 amine or outer side, *2 acyl side, *3 side chain or, on linkers, in order; H or OH if unused. Where a SMILES comes first, the peptide text is derived from it. Bridges are numbered along the chain shown (N, C = ends). Where no end group is shown, it is not given here. [ ]: non-standard residue; d: D form. The star is where a group is joined. Phe(4-NO2) = N[C@@H](Cc1ccc([N+](=O)[O-])cc1)C(=O)O; X1 = N=C(NCCCC[C@H](N[*:1])C(=O)[*:2])c1ccccc1; X2 = CC(=N)NCCCC[C@H](N[*:1])C(=O)[*:2]; NMeR = CN[C@@H](CCCNC(=N)N)C(=O)O; hArg = N=C(N)NCCCC[C@H](N)C(=O)O; dPen = CC(C)(S)[C@@H](N)C(=O)O; Pen = CC(C)(S)[C@H](N)C(=O)O; NMeS = CN[C@@H](CO)C(=O)O; NMeA = CN[C@@H](C)C(=O)O; βAla = NCCC(=O)O; Mpa = O=C(O)CCS; Sar = CNCC(=O)O; For = O=C*

Experiments:
[1] = 25 mM citrate buffer pH 5.25, about 1 mg/mL
Text: Test sample vials from each temperature condition were removed periodically and analyzed for stability by HPLC and visual inspection as described in Example 1.

[2] = target: ADP-induced human platelet aggregation (Homo sapiens, UniProt P05106+P08514); test: standard aggregation inhibition assay (ADP-induced human platelet aggregation); format: cell-based; conditions: for IC20: PAI activity, Example 15, read-out: Appr.IC20; for IC50: ADP-induced human platelet aggregation, read-out: Appr, IC50
Text: 2. Standard assays directly applied to platelet aggregation, such as those described by Gann, Z.-R., et al., J Biol Chem (1988) 263:19827-19832; Huang, T. F., et al., J Biol Chem (1987) 262:16157-16163; Biochemistry (1989) 28:661-666, cited above and incorporated herein by reference;

C[C@@H]1NC(=O)CCSSC[C@@H](C(N)=O)NC(=O)[C@@H]2CCCN2C(=O)[C@H](Cc2c[nH]c3ccccc23)NC(=O)[C@H](CC(=O)O)NC(=O)CNC(=O)[C@H](CCCCNC(=N)N)NC1=O [PAI 82, Mpr-A-Har-G-D-W-P-C-NH2] ([Mpa]A[hArg]GDWPC-NH2; disulfide 1-8)
stability by HPLC as in Example 1 ([1]; 5° C., Time (Days) 0): 99.6 | stability by HPLC as in Example 1 ([1]; 5° C., Time (Days) 29): 98.1 | stability by HPLC as in Example 1 ([1]; 5° C., Time (Days) 60): 98.3 | stability by HPLC as in Example 1 ([1]; 5° C., Time (Days) 90): 97.3 | stability by HPLC as in Example 1 ([1]; 30° C., Time (Days) 29): 97.3 | stability by HPLC as in Example 1 ([1]; 30° C., Time (Days) 60): 97.3 | stability by HPLC as in Example 1 ([1]; 30° C., Time (Days) 90): 96.5 | stability by HPLC as in Example 1 ([1]; 45° C., Time (Days) 29): 95.4 | stability by HPLC as in Example 1 ([1]; 45° C., Time (Days) 60): 92.6 | stability by HPLC as in Example 1 ([1]; 45° C., Time (Days) 90): 90.6 | IC20 [2]: 0.12 µM

CN1CC(=O)N[C@@H](CC(=O)O)C(=O)N[C@@H](Cc2c[nH]c3ccccc23)C(=O)N2CCC[C@H]2C(=O)N[C@H](C(N)=O)CSSC[C@H](N)C(=O)N[C@@H](CCCCN)C1=O [Analog #43, C-K-(Sar)-D-W-P-C-NH2] (H-CK[Sar]DWPC-NH2; disulfide 1-7)
IC50 [2]: 50 µM

N=C(N)NCCCC[C@@H]1NC(=O)CNC(=O)CCSSC[C@@H](C(N)=O)NC(=O)[C@@H]2CCCN2C(=O)[C@H](Cc2c[nH]c3ccccc23)NC(=O)[C@H](CC(=O)O)NC(=O)CNC1=O [PAI 81, Mpr-G-Har-G-D-W-P-C-NH2] ([Mpa]G[hArg]GDWPC-NH2; disulfide 1-8)
IC20 [2]: 7.47 µM

C[C@@H]1NC(=O)CCSSC(C)(C)[C@@H](C(N)=O)NC(=O)[C@@H]2CCCN2C(=O)[C@H](Cc2c[nH]c3ccccc23)NC(=O)[C@H](CC(=O)O)NC(=O)CNC(=O)[C@H](CCCCN)NC1=O [PAI 101, Mpr-A-K-G-D-W-P-Pen-NH2] ([Mpa]AKGDWP[Pen]-NH2; disulfide 1-8)
IC20 [2]: 4.91 µM

NCCCC[C@@H]1NC(=O)[C@@H](N)CSSC[C@@H](C(N)=O)NC(=O)[C@@H]2CCCN2C(=O)[C@H](Cc2ccc([N+](=O)[O-])cc2)NC(=O)[C@H](CC(=O)O)NC(=O)CNC1=O [Analog #44, C-K-G-D-(4-NO2 -Phe)-P-C-NH2] (H-CKGD[Phe(4-NO2)]PC-NH2; disulfide 1-7)
IC50 [2]: 75 µM

CKGDFPC-NH2 (cysteine pairing not given here) [Analog #13]
IC50 [2]: 20 µM

CC1(C)SSCCC(=O)N[C@@H](CC(=O)O)C(=O)N[C@@H](CCCCNC(=N)N)C(=O)NCC(=O)N[C@@H](CC(=O)O)C(=O)N[C@@H](Cc2c[nH]c3ccccc23)C(=O)N2CCC[C@H]2C(=O)N[C@@H]1C(N)=O [PAI 102, Mpr-D-(Har)-G-D-W-P-Pen-NH2] ([Mpa]D[hArg]GDWP[Pen]-NH2; disulfide 1-8)
IC20 [2]: 4.04 µM

CC1(C)SSCCC(=O)N[C@@H](CCCCN)C(=O)NCC(=O)N[C@@H](CC(=O)O)C(=O)N[C@H](Cc2c[nH]c3ccccc23)C(=O)N2CCC[C@H]2C(=O)N[C@@H]1C(N)=O [Analog #50, Mpr-K-G-D-W.dagger.-P-Pen-NH2] ([Mpa]KGD[dW]P[Pen]-NH2; disulfide 1-7)
IC50 [2]: > 200 µM

NC(=O)[C@@H]1CSSC[C@H](N)C(=O)N[C@@H](CCCCNC=O)C(=O)NCC(=O)N[C@@H](CC(=O)O)C(=O)N[C@@H](Cc2c[nH]c3ccccc23)C(=O)N2CCC[C@H]2C(=O)N1 [Analog #40, C-K(Formyl)-G-D-W-P-C-NH2] (H-CK(For)GDWPC-NH2; disulfide 1-7)
IC50 [2]: > 200 µM

CN1CC(=O)N[C@@H](CC(=O)O)C(=O)N[C@@H](Cc2c[nH]c3ccccc23)C(=O)N2CCC[C@H]2C(=O)N[C@H](C(N)=O)C(C)(C)SSCCC(=O)N[C@@H](CCCCNC(=N)N)C1=O [Analog #71, Mpr-Har-Sar-D-W-P-Pen-NH2] ([Mpa][hArg][Sar]DWP[Pen]-NH2; disulfide 1-7)
IC50 [2]: 2.5 µM

CN1CC(=O)N[C@H](C(N)=O)CSSC[C@H](N)C(=O)N[C@@H](CCCCN)C(=O)NCC(=O)N[C@@H](CC(=O)O)C(=O)N[C@@H](Cc2c[nH]c3ccccc23)C1=O [Analog #39, C-K-G-D-W-(Sar)-C-NH2] (H-CKGDW[Sar]C-NH2; disulfide 1-7)
IC50 [2]: 5 µM

C[C@H]1C(=O)N[C@H](C(N)=O)CSSCCC(=O)N[C@@H](CCCCNC(=N)N)C(=O)NCC(=O)N[C@@H](CC(=O)O)C(=O)N[C@@H](Cc2c[nH]c3ccccc23)C(=O)N2CCC[C@H]2C(=O)N1C [PAI 94, Mpr-Har-G-D-W-P-(N-Me-Ala)-C-NH2] ([Mpa][hArg]GDWP[NMeA]C-NH2; disulfide 1-8)
IC20 [2]: 1.46 µM

CC(=N)NCCCC[C@@H]1NC(=O)CCSSC(C)(C)[C@@H](C(N)=O)NC(=O)[C@@H]2CCCN2C(=O)[C@H](Cc2c[nH]c3ccccc23)NC(=O)[C@H](CC(=O)O)NC(=O)CNC1=O [Analog #69, Mpr-(Acetimidyl-Lys)-G-D-W-P-Pen-NH2] ([Mpa][X2]GDWP[Pen]-NH2; disulfide 1-7)
IC50 [2]: 0.5 µM

CC1(C)SSCCC(=O)N[C@@H](CCCCN)C(=O)NCC(=O)N[C@@H](CC(=O)O)C(=O)N[C@@H](Cc2c[nH]c3ccccc23)C(=O)N2CCC[C@H]2C(=O)N[C@H]1C(N)=O [Analog #52, Mpr-K-G-D-W-P-Pen.dagger.-NH2] ([Mpa]KGDWP[dPen]-NH2; disulfide 1-7)
IC50 [2]: 5 µM

Mpr-(N-Me-Ser)-Har-G-D-W-P-C-NH2 ([Mpa][NMeS][hArg]GDWPC-NH2; cysteine pairing not given here) [PAI 85]
IC20 [2]: 0.28 µM

CHGDWPC-NH2 (cysteine pairing not given here) [Analog #46]
IC50 [2]: 200 µM

C[C@H]1NC(=O)[C@H](CCCCN)NC(=O)[C@@H](N)CSSC[C@@H](C(N)=O)NC(=O)[C@@H]2CCCN2C(=O)[C@H](Cc2c[nH]c3ccccc23)NC(=O)[C@H](CC(=O)O)NC1=O [Analog #38, C-K-A.dagger.-D-W-P-C-NH2] (H-CK[dA]DWPC-NH2; disulfide 1-7)
IC50 [2]: > 200 µM

CC(=O)N[C@H]1CSSC(C)(C)[C@@H](C(N)=O)NC(=O)[C@H](CC(=O)O)NC(=O)CNC(=O)[C@H](CCCNC(=N)N)NC1=O [Analog #11, Acetyl-C-R-G-D-Pen-NH2] (Ac-CRGD[Pen]-NH2; disulfide 1-5)
IC50 [2]: 5 µM

N=C(NCCCC[C@@H]1NC(=O)CCSSC[C@@H](C(N)=O)NC(=O)[C@@H]2CCCN2C(=O)[C@H](Cc2c[nH]c3ccccc23)NC(=O)[C@H](CC(=O)O)NC(=O)CNC1=O)c1ccccc1 [Analog #70, Mpr-(Phenylimidyl-Lys)-G-D-W-P-C-NH2] ([Mpa][X1]GDWPC-NH2; disulfide 1-7)
IC50 [2]: 0.5 µM

Acetyl-C-K-G-D-C-NH2 [Analog #8]
IC50 [2]: 200 µM

NCCCC[C@@H]1NC(=O)CCSSC[C@H](C(N)=O)NC(=O)[C@@H]2CCCN2C(=O)[C@H](Cc2c[nH]c3ccccc23)NC(=O)[C@H](CC(=O)O)NC(=O)CNC1=O [Analog #61, Mpr-K-G-D-W-P-C.dagger.-NH2] ([Mpa]KGDWP[dC]-NH2; disulfide 1-7)
IC50 [2]: 15 µM

CKGDIPC-NH2 (cysteine pairing not given here) [Analog #41]
IC50 [2]: 100 µM

CN1C(=O)CCSSC[C@@H](C(N)=O)NC(=O)[C@@H]2CCCN2C(=O)[C@H](Cc2c[nH]c3ccccc23)NC(=O)[C@H](CC(=O)O)NC(=O)CNC(=O)[C@H](CCCCNC(=N)N)NC(=O)[C@@H]1CCCNC(=N)N [PAI 84, Mpr-(N-Me-Arg)-Har-G-D-W-P-C-NH2] ([Mpa][NMeR][hArg]GDWPC-NH2; disulfide 1-8)
IC20 [2]: 0.25 µM

N=C(N)NCCCC[C@@H]1NC(=O)CCNC(=O)CCSSC[C@@H](C(N)=O)NC(=O)[C@@H]2CCCN2C(=O)[C@H](Cc2c[nH]c3ccccc23)NC(=O)[C@H](CC(=O)O)NC(=O)CNC1=O [PAI 87, Mpr-(β-Ala)-Har-G-D-W-P-C-NH2] ([Mpa][βAla][hArg]GDWPC-NH2; disulfide 1-8)
IC20 [2]: 0.92 µM

CN1CC(=O)N[C@H](C(N)=O)CSSCCC(=O)N[C@@H](CCCCNC(=N)N)C(=O)NCC(=O)N[C@@H](CC(=O)O)C(=O)N[C@@H](Cc2c[nH]c3ccccc23)C(=O)N2CCC[C@H]2C1=O [PAI 98, Mpr-Har-G-D-W-P-(Sar)-C-NH2] ([Mpa][hArg]GDWP[Sar]C-NH2; disulfide 1-8)
IC20 [2]: 0.31 µM
